Data as given in patent US9309242B2, “Substituted pyrido[2,3-b]pyrazines as FGFR kinase inhibitors” (priority 2011, dated 2016).
pIC50: −log10 of the molar value.

Experiments:
FGFR1 (h) = FGFR1 (h) (Homo sapiens, UniProt P11362); test: FGFR1 (enzymatic assay), TR-FRET; type: biochemical; conditions: read-out: FGFR 1 pIC50 (converted)
[1] = target: T1, Ba/F3-FGFR3-transfected cells (Homo sapiens, UniProt P22607); test: Ba/F3-FGFR3 (minus IL3) cellular proliferation assay, Alamar Blue; type: cell-based
T1 construct: BAF3-FGFR3 (MIN IL3) pIC50; other: minus IL3
In short: (§1)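 Ba/F3 cells transfected with FGFR3 were seeded at 20000 cells/well in phenol red-free RPMI-1640 with 10% FBS over compound in DMSO and kept 24 hours at 37° C, 5% CO2. Alamar Blue (resazurin) was then added for 4 hours and fluorescence read at ex 540/em 590 nm. The counterscreen repeated this with 10 ng/ml murine IL3.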

[2] = target: T2, Ba/F3-FGFR1-transfected cells (Homo sapiens, UniProt P11362); test: Ba/F3-FGFR1 (minus IL3) cellular proliferation assay, Alamar Blue; type: cell-based
T2 construct: BAF3-FGFR1 (MIN IL3) pIC50; other: minus IL3
In short: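 Ba/F3 cells transfected with FGFR1 (20000 cells/well) were plated onto compound in phenol red-free RPMI-1640 with 10% FBS, 2 mM L-glutamine and gentamycin, then kept 24 h at 37 °C, 5% CO2. Alamar Blue (resazurin) was added for 4 h and fluorescence read at ex 540/em 590 nm.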

KDR (h) = KDR (h) (Homo sapiens, UniProt P35968); test: KDR (VEGFR2) (enzymatic assay), TR-FRET; type: biochemical; conditions: read-out: VEGFR 2 (KDR) pIC50 (converted)
In short: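 Human KDR (150 ng/ml) was reacted with 500 nM Btn-Flt3 and 3 μM ATP in 50 mM HEPES pH 7.5, 6 mM MnCl2, 1 mM DTT, 0.1 mM Na3VO4, 0.01% Triton X-100, 1% DMSO, for 120 min at room temperature. Phosphorylation detected by TR-FRET (Eu-anti-P-Tyr/SA-XL665, 60 min), read in RFU.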

FGFR4 (h) = FGFR4 (h) (Homo sapiens, UniProt P22455); test: FGFR4 (enzymatic assay), TR-FRET; type: biochemical; conditions: FGFR 4 pIC50, enzymatic assay
[3] = system: Ba/F3-FGFR3-transfected cells; test: Ba/F3-FGFR3 (plus IL3) cellular proliferation assay, counterscreen with 10 ng/ml murine IL3; type: cell-based; conditions: plus IL3 (10 ng/ml murine IL3, counterscreen); read-out: BAF3-FGFR3 (PLUS IL3) pIC50 (converted)
In short: as §1

FGFR3 (h) = FGFR3 (h) (Homo sapiens, UniProt P22607); test: FGFR3 (enzymatic assay), TR-FRET; type: biochemical; conditions: read-out: FGFR 3 pIC50 (converted)
Excerpt: Time-Resolved Fluorescence Resonance Energy Transfer (TR-FRET) signal (ex340 nm.

[4] = system: Ba/F3-FGFR1-transfected cells; test: Ba/F3-FGFR1 (plus IL3) cellular proliferation assay, counterscreen with 10 ng/ml murine IL3; type: cell-based; conditions: plus IL3 (10 ng/ml murine IL3, counterscreen); read-out: BAF3-FGFR1 (PLUS IL3) pIC50 (converted)
In short: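 Ba/F3-FGFR1 cells (20000/well) in RPMI-1640 with 10% FBS exposed to compound for 24 h at 37° C., 5% CO2, then Alamar Blue (resazurin) added for 4 h; fluorescence read at ex 540/em 590 nm. Counterscreen run identically with 10 ng/ml murine IL3.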

[5] = target: T3, Ba/F3-KDR-transfected cells (Homo sapiens, UniProt P35968); test: Ba/F3-KDR (minus IL3) cellular proliferation assay, Alamar Blue; type: cell-based
T3 construct: BAF3-KDR (MIN IL3) pIC50; other: minus IL3
In short: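 Ba/F3-KDR-transfected cells, 20000 per well in phenol red free RPMI-1640 with 10% FBS, exposed to compound 24 hours at 37° C, 5% CO2; Alamar Blue then added for 4 hours and fluorescence read (ex. 540 nm, em. 590 nm). Plus-IL3 counterscreen run identically with 10 ng/ml murine IL3.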

FGFR2 (h) = FGFR2 (h) (Homo sapiens, UniProt P21802); test: FGFR2 (enzymatic assay), TR-FRET; type: biochemical; conditions: enzymatic assay; read-out: FGFR 2 pIC50 (converted)
In short: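 Compound (1% DMSO final) was combined with FGFR2 (h), 150 ng/ml, plus 0.4 μM ATP and 500 nM biotin-Flt3 in Mn2+-containing HEPES buffer at pH 7.5.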

T2 sequence (P11362 whole entry, change not shown): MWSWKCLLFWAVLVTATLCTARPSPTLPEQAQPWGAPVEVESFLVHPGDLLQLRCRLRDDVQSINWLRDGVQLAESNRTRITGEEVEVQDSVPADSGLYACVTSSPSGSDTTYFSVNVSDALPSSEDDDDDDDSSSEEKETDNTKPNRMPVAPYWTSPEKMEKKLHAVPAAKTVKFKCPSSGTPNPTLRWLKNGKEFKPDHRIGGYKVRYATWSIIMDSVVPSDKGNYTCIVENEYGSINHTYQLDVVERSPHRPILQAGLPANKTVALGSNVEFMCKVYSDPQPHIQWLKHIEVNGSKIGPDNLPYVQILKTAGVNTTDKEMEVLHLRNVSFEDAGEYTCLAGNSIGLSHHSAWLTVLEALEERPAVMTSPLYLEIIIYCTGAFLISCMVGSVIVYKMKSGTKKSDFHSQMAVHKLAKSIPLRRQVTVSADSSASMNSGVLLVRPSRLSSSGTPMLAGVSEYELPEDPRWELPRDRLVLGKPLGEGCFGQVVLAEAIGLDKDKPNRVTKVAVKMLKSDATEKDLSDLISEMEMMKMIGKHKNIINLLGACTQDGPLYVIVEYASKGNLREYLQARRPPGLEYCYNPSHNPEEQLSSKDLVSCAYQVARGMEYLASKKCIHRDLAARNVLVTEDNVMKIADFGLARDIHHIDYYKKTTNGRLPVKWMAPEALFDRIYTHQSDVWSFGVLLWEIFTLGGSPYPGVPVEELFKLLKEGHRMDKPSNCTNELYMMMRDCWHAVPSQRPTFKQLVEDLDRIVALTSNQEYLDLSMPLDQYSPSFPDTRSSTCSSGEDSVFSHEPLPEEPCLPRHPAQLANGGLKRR
Sequence of FGFR3 (h) (P22607 23-806): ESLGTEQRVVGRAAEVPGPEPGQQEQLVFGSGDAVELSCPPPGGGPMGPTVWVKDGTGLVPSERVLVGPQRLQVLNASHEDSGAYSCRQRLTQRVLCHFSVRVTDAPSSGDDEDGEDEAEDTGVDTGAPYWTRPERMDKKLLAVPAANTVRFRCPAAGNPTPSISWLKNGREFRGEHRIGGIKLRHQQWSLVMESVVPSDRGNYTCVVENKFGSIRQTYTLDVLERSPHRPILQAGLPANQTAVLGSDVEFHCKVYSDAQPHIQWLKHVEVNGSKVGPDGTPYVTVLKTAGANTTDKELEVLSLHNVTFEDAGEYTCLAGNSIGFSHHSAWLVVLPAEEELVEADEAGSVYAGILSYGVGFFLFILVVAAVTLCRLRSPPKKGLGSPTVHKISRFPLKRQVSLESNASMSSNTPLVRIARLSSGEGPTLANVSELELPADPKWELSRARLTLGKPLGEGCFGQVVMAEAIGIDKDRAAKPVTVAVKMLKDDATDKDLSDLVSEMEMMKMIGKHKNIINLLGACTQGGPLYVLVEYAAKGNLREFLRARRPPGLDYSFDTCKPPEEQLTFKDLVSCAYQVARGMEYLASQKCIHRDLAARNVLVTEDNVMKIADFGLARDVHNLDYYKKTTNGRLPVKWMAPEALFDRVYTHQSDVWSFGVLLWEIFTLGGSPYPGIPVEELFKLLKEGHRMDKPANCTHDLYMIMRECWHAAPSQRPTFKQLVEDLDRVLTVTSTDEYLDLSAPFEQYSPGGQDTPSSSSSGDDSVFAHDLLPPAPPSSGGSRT
T1 sequence (P22607 whole entry, change not shown): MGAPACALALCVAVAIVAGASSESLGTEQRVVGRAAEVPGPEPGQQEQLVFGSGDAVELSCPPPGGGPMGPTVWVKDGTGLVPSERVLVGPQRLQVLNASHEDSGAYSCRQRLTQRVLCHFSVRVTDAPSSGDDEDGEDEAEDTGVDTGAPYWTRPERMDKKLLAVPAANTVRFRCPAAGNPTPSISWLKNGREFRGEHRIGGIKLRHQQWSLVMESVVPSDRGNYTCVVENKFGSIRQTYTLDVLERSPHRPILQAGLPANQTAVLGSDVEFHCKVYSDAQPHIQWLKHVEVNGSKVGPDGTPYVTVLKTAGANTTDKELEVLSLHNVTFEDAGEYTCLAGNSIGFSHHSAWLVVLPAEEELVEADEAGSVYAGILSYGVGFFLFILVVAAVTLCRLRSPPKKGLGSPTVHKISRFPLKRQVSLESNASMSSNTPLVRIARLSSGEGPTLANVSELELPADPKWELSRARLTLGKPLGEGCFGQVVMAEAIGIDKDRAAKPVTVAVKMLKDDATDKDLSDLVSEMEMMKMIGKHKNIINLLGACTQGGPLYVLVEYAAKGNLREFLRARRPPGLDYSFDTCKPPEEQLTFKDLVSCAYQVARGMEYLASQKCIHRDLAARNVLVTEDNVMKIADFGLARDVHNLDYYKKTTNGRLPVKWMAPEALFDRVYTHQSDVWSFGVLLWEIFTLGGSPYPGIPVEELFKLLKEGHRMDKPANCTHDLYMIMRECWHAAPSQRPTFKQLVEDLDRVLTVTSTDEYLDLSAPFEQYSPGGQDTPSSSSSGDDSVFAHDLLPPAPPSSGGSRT
Sequence of FGFR2 (h) (P21802 22-821): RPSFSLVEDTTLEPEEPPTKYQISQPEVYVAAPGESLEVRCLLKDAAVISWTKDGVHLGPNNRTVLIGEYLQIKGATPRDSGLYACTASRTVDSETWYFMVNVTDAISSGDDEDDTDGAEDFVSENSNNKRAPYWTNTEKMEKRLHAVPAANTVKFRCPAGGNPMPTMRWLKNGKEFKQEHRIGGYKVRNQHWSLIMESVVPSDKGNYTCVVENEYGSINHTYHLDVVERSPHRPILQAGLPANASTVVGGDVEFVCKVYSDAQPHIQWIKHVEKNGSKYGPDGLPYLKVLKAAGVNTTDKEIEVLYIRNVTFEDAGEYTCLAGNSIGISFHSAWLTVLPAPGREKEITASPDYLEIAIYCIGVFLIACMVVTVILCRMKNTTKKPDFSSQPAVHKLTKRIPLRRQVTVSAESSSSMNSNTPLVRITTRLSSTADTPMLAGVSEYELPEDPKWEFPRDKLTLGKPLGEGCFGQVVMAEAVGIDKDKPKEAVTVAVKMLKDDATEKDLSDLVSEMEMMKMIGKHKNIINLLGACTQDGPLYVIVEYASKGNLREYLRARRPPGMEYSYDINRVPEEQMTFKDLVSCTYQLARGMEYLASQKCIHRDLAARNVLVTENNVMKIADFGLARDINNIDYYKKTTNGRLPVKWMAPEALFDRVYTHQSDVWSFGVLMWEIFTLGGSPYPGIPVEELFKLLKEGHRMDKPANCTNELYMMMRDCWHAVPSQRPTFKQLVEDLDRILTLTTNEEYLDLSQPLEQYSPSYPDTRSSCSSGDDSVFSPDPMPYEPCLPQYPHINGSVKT
Sequence of FGFR4 (h) (P22455 22-802): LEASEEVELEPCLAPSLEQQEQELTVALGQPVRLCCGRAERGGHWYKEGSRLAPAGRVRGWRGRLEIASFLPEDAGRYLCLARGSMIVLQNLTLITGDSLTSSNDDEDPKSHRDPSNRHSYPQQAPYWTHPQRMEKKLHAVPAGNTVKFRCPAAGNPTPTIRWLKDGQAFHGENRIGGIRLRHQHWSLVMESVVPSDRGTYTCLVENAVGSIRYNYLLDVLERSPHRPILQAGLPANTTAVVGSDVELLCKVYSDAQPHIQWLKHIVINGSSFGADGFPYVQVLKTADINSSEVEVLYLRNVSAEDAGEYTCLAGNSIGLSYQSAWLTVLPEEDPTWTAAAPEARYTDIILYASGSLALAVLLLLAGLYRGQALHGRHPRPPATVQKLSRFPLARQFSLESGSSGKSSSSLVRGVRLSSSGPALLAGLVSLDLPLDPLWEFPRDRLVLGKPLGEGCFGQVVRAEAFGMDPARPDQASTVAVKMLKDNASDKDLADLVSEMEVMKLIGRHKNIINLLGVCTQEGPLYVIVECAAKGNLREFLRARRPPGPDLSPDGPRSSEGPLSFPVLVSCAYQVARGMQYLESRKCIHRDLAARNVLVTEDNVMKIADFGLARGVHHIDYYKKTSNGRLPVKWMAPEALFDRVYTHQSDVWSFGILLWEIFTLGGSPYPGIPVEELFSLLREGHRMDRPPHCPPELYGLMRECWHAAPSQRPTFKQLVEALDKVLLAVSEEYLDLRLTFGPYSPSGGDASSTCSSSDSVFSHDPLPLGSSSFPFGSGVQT
Sequence of FGFR1 (h) (P11362 22-822): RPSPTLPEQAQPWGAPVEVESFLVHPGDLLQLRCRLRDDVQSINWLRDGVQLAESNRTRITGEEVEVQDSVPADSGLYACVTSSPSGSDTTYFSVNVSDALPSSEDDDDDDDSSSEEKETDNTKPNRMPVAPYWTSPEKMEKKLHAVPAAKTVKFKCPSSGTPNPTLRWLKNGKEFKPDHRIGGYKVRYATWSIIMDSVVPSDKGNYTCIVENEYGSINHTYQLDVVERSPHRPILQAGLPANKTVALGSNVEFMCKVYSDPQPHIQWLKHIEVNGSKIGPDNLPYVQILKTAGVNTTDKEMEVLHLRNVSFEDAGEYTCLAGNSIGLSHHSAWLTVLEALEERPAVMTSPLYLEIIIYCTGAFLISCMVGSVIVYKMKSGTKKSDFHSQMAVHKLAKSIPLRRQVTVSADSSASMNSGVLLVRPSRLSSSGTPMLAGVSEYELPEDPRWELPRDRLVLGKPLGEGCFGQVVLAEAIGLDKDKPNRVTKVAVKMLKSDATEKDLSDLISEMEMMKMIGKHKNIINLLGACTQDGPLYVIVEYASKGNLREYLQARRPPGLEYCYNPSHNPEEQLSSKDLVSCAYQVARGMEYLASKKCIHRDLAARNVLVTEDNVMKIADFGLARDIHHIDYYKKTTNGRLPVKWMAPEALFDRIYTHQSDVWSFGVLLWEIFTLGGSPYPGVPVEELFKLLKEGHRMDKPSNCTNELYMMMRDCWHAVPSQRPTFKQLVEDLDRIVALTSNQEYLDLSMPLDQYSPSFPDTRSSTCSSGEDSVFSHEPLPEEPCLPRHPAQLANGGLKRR

| Structure (SMILES) | IC50 (FGFR1 (h)) [nM] | BAF3-FGFR3 (MIN IL3) pIC50 [1] | BAF3-FGFR1 (MIN IL3) pIC50 [2] | IC50 (KDR (h)) [nM] | pIC50 (FGFR4 (h)) | IC50 [3] [nM] | IC50 (FGFR3 (h)) [nM] | IC50 [4] [nM] | BAF3-KDR (MIN IL3) pIC50 [5] | IC50 (FGFR2 (h)) [nM] |
| --- | --- | --- | --- | --- | --- | --- | --- | --- | --- | --- |
| COc1cc(OC)c(F)c(N(CC(=O)N2CCNCC2)c2ccc3ncc(-c4cnn(C)c4)nc3n2)c1 [Compound 262] | 7.24 | ~6.17 | 6.51 | 240 | 7.26 | > 10000 | 17.4 | > 10000 | 5.06 | 7.24 |
| COc1cc(OC)c(F)c(N(Cc2ncc[nH]2)c2ccc3ncc(-c4cnn(CCS(C)(=O)=O)c4)nc3n2)c1 [Compound 264] | 0.55 | 8.09 | 7.66 | 9.33 | 8.86 | > 10000 | 1.41 | > 10000 | 5.58 | 1.86 |
| COc1cc(OC)c(F)c(N(CCS(C)(=O)=O)c2ccc3ncc(-c4cnn(CCS(C)(=O)=O)c4)nc3n2)c1 [Compound 266] | 1.45 | 6.35 | 6.29 | 34.7 | 8.37 | > 10000 | 1.7 | > 10000 | <5 | 2.24 |
| COc1cc(OC)c(F)c(N(CC2CC(O)C(=O)N2)c2ccc3ncc(-c4cnn(C)c4)nc3n2)c1 (stereo not drawn) [Compound 269] | 1.62 | ~7.1 | 6.72 | 74.1 | 8.51 | > 10000 | 2.14 | > 10000 | 5.12 | 3.24 |
| COc1cc(/N=c2\ccc3ncc(-c4cnn(C)c4)nc3n2CC2CC(O)C(=O)N2)c(F)c(OC)c1 (stereo not drawn) [Compound 270] | 0.776 | 7.00 | 7.12 | 6.46 | 8.64 | > 10000 | 1.1 | > 10000 | 5.56 | 2.09 |
| COc1cc(OC)cc(N(CC2CC(O)C(=O)N2)c2ccc3ncc(-c4cnn(C)c4)nc3n2)c1 (stereo not drawn) [Compound 271] | 4.57 | 6.27 | 6.02 | 174 | 8.11 | > 10000 | 2.45 | > 10000 | <5 | 3.98 |
| COc1cc(/N=c2\ccc3ncc(-c4cnn(C)c4)nc3n2CC2CC(O)C(=O)N2)cc(OC)c1 (stereo not drawn) [Compound 272] | 0.977 | 6.73 | 6.54 | 10 | 8.28 | > 10000 | 1.45 | > 10000 | 5.68 | 2.57 |
| COc1cc(OC)c(C)c(N(Cc2ncc[nH]2)c2ccc3ncc(-c4cnn(C)c4)nc3n2)c1 [Compound 273] | 1.15 | ~8.60 | 8.44 | 20.4 | 8.55 | > 10000 | 3.16 | > 10000 | 6.44 | 3.8 |
| COc1cc(OC)cc(N(CCS(C)(=O)=O)c2ccc3ncc(-c4cnn(CCS(C)(=O)=O)c4)nc3n2)c1 [Compound 275] | 5.89 | 5.80 | 5.64 | 141 | 7.92 | > 10000 | 3.39 | > 10000 | <5 | 3.47 |
| COc1cc(OC)cc(N(CC(C)(C)O)c2ccc3ncc(-c4cnn(C)c4)nc3n2)c1 [Compound 276] | 14.5 | 6.41 | 6.28 | 141 | 7.16 | > 10000 | 8.32 | > 10000 | 5.02 | 9.12 |
| COc1cc(/N=c2\ccc3ncc(-c4cnn(C)c4)nc3n2CC(C)(C)O)cc(OC)c1 [Compound 277] | 0.871 | 7.16 | 6.91 | 15.1 | 8.33 | > 10000 | 1.07 | > 10000 | 5.49 | 2.09 |
| COc1cc(OC)c(F)c(N(CC(C)(C)O)c2ccc3ncc(-c4cnn(C)c4)nc3n2)c1F [Compound 278] | 1.62 | 7.73 | 7.45 | 15.8 | 8.31 | > 10000 | 2.95 | > 10000 | 5.92 | 4.17 |
| COc1cc(OC)cc(N(c2ccc3ncc(-c4cnn(C)c4)nc3n2)C(C)c2ncc[nH]2)c1 (stereo not drawn) [Compound 280] | 0.851 | ~8.63 | 8.64 | 31.6 | 8.63 | > 10000 | 1.86 | > 10000 | 6.03 | 2.04 |
| COc1cc(OC)cc(N(Cc2nnc(NCCO)o2)c2ccc3ncc(-c4cnn(C)c4)nc3n2)c1 [Compound 282] | 33.1 | <5 | <5 | 661 | 6.98 | > 10000 | 25.7 | > 10000 | <5 | 19.1 |
| COc1cc(OC)c(F)c(N(CC2CCC(=O)N2)c2ccc3ncc(-c4cnn(CC(C)(C)O)c4)nc3n2)c1 (stereo not drawn) [Compound 285] | 2.34 | 6.84 | 6.38 | 35.5 | 8.14 | > 10000 | 2.75 | > 10000 | 5.36 | 4.07 |
| COc1cc(/N=c2\ccc3ncc(-c4cnn(CC(C)(C)O)c4)nc3n2CC2CCC(=O)N2)c(F)c(OC)c1 (stereo not drawn) [Compound 286] | ~1.55 | 7.66 | 7.07 | 11 | 8.41 | > 10000 | 1.35 | > 10000 | 6.23 | 2.04 |
| COc1cc(OC)c(F)c(N(c2ccc3ncc(-c4cnn(C)c4)nc3n2)C(C)c2ncc[nH]2)c1 (stereo not drawn) [Compound 287] | 0.851 | ~8.54 | 8.87 | 17.4 | 8.67 | > 10000 | 2.14 | > 10000 | 6.62 | 3.09 |
| CNCCn1ccnc1CN(c1ccc2ncc(-c3cnn(C)c3)nc2n1)c1cc(OC)cc(OC)c1F [Compound 289] | 4.37 | 6.92 | 6.66 | 97.7 | 7.24 | > 10000 | 12.9 | > 10000 | 5.28 | 8.51 |
